Measured values taken from patent US9403843B2, “Cysteine protease inhibitors and uses thereof” (The Trustees of Columbia University in the City of New York, priority 2012, dated 2016).
Where two headings read alike, the source gives them in different places.

Experiments:
Cal I = test: Relative selectivity for Cal I (E64 = 1.0), Table 2; type: biochemical; details: relative to E64 = 1.0
primary neurons = test: LD50 in primary neurons; type: cell-based; details: YES = LD50 ≧ 50 μM in primary neurons
full-length human Cal1 [1] = target: T1, full-length human Cal1 (Homo sapiens (Human), UniProt P07384); test: Calpain inhibition FRET assay; type: biochemical; details: Table 3, 20 min incubation, FRET substrate
full-length human Cal1 [2] = target: T1, full-length human Cal1; test: Calpain inhibition FRET assay; type: biochemical
Experimental: Calpain activity was measured using full-length human Cal1 in the presence of a FRET substrate. IC50 values were approximated by co-incubation of varying concentrations of the appropriate inhibitor (10, 100, 500, 1000 nM) in the presence of the FRET substrate (DABCYL)TPLK-SPPSPR-(EDANS) (SEQ ID NO: 5) and activation buffer. […] A peptide inhibitor, Z-LLY-FMK (SEQ ID NO: 6), was used as a positive control.
The Calbiochem InnoZyme activity kit was used for measuring the inhibition effect inhibitors on human erythrocyte calpain 1 activity. […] 20 μM of the FRET substrate, 10 nM of native Cal1, and 20 μM TCEP (reducing agent) were added to the reaction mixture containing assay buffer (Tris [10 mM], NaCl [100 mM], pH 7.4). Cal1 was activated by the addition of 10 μM calcium. Cleavage of the scissile bond amide bond, K-S, releases the fluorophore (EDANS) from the internal quenching molecule (DABCYL), resulting in an increase in fluorescence measured at 320 nm excitation and 480 nm emission wave lengths for 30 min. Each inhibitor was added to the reaction mixture at varying concentrations (10 nM, 100 nM, 1 μM, and 10 μM) to detect inhibition of Cal1 and reduction in fluorescence was measured by 96 well-plate reader. Approximate IC50 values of each compound were generated using linear regression within Graphpad Prism Software.

APP/PS1 mice = test: Behavioral rescue assays (contextual fear memory, 2-day RAWM reference memory); type: in vivo
From the text: APP/PS1-vehicle: n=15; APP/PS1-67: n=6; APP/PS1-30a: n=10; WT-vehicle: n=15; WT-67=5; WT-30a: n=8, APP/PS1-33: n=11; WT-33: n=8, APP/PS1-50: n=10; WT-50: n=8. P<0.05 in all transgenic groups treated with compound compared to their respective vehicle-treated transgenics.
APP/PS1-vehicle: n=17; APP/PS1-67: n=9; APP/PS1-30a: n=10; WT-vehicle: n=18; WT-67=9; WT-30a: n=9, APP/PS1-33: n=10; WT-33: n=9, APP/PS1-50: n=11; WT-50: n=9.
The ability of compounds to rescue the defects in associative and reference memory in 3 month old APP/PS1 animals was assessed. Capability of ameliorating the defects in contextual fear memory was tested via i.p. administration (FIG. 12). In the 2-day RAWM test, daily injections of the 67, 30a, 33 and 50 from the 2nd month of age were beneficial against the loss of contextual fear memory and reference memory.
Impact of chronic treatment on against memory loss in older APP/PS1 mice (7 months of age) with a more severe plaque load was also investigated. Compounds 67, 33 and 50 were beneficial against memory impairment following chronic administration (FIG. 13).
The ability of a prodrug to rescue the defects in associative and reference memory in 3 month old APP/PS1 animals was assessed. […] Thus, the esterification seems to improve PK but it spoils PD parameters. Compound 89 ameliorates both LTP and memory in 3 month old APP/PS1 mice (FIG. 15). Daily treatment with 89 from the age of 2 months until 3 months ameliorated the defect in LTP (A) contextual fear memory (B) and reference memory (C) in APP/PS1 mice. n=10 for all groups. P<0.05 in transgenics treated with compound compared to their respective vehicle-treated transgenics.

[3] = tested on: calpain-generated spectrin fragments; test: Spectrin proteolytic degradation products in hippocampi, western blot; type: in vivo; details: for prevention of spectrin cleavage by calpains in hippocampi: i.p. treatment for 12 days, doses as for PK
Experimental: Studies were performed to determine capability of lowering levels of spectrin proteolytic degradation products in hippocampi from adult animals. Using western blot analysis, prevention of calpain-generated spectrin fragments was checked following i.p. treatment for 12 days with 30a, 33 and 50 at the same concentrations used for PK assessment. The array of vehicle samples was obtained by loading samples with 5, 10, 15, and 20 μg total protein/lane. Samples from compound treated animals were loaded at 15 μg/lane.

papain = papain (Carica papaya (Papaya), UniProt P00784); test: biochemical; type: biochemical
From the text: (§1) Papain is representative of a family of typically lysosomal or secreted cysteine proteases, including the human cathepsins (B, C, F, H, K, L1-2, O, S, W, Z). […] Several methods have been reported in the literature for detailed kinetic analysis of the irreversible inhibition of cysteine proteases, including Cal1. […] (SEQ ID NO: 8). Using this substrate, kinetic parameters were derived using the method of Davies and co-workers, whereby “progress curves” were initially obtained measuring product formation as a function of time and fitted to y=P∞*(1−e^(−k*x)) (FIG. 7) (Cuerrier, D. et al., J Biol Chem 2007, 282, 9600-11; herein incorporated by reference in its entirety). […] Kinetic parameters (ki, KI, ki/KI) were obtained from double reciprocal plots (FIG. 7).
(§2) Full length porcine calpain (156 nM), or papain (236 pM) was added to a solution of 100 mM NaCl, 50 mM HEPES, pH 7.6, 1 mM TCEP, 30 μM Suc-LLVY-AMC (SEQ ID NO: 8) substrate, and inhibitor (0.5 to 50 μM). Calpain reactions also contained CaCl2 (1 mM and 100 mM for porcine and rat respectively). Both substrate and inhibitors were dissolved in acetonitrile/DMSO (1:1) with the exception of E-64, dissolved in water. Organic solvent remained <2% in all reactions, and most often <1%. Reactions were carried out in microtiter 96-well plates, with 150 μL per well, 30° C., and product formation was monitored over time by fluorescence (Ex/Em 346/444 nm, with 420 nm cutoff filter). Kinetic values of kobs were determined via non-linear regression using one-phase association analysis and linear plots of 1/kobs vs. 1/[I] provided kinetic constants ki and KI.

[4] = target: Full length porcine calpain (Sus scrofa (Pig), UniProt P35750); test: Calpain inhibition kinetics studies (Suc-LLVY-AMC substrate); type: biochemical
From the text: as §1, §2

[5] = tested on: Aβ-induced LTP impairment; test: LTP rescue test; details: assessed at 650 nM
Experimental: Residual levels of potentiation were averaged during the last 5 min of LTP.

[6] = Plasma pharmacokinetics after i.p. administration; type: in vivo; details: ICR mice; for time of peak plasma concentration: i.p., 30a 7.57, 33 7.86, 50 7.83 mg/kg; for half-life / bioavailability: mouse, ip, plasma; for bioavailability: after i.p. administration, read-out: absolute bioavailability
Experimental: Plasma concentrations of 30a, 33 and 50 were determined by LC-MS/MS after i.p. administration to ICR mice. The plasma concentrations at each sampling time are shown on FIG. 10. […] Indeed, following i.p. administration of 30a (7.57 mg/kg), 33 (7.86 mg/kg) and 50 (7.83 mg/kg), the peak plasma concentration occurred at 0.25, 0.5 and 0.125 h after dosing, respectively. […] The respective half-lives were ˜0.6 hrs, ˜1.1 hrs and ˜0.6 hrs.

[7] = Acute and chronic toxicity, maximum tolerated dose; type: in vivo; details: mice; for MTD: mouse, in vivo, no malaise or death
From the text: For evaluation of acute and chronic toxicity we measured the maximum tolerated dose (MTD) in mice for 30a, 33 and 50.

Cal1cat vs CathB = test: Competition assay for Cal1 vs CathB using the biotinylated epoxide probe; type: binding, rat
Experimental: Anti-biotin western blotting of Cal1cat (Lane 6) or CathB (Lane 7) after incubation with 27 show the expected immunoreactivity of the covalently modified proteins. […] Densitometric analysis, using means from triplicate immunoblots, was used to estimate the modification of each protein by 27 in the presence of inhibitors relative to control (Lane 1: ratio=1.0).
Cal1cat was used in place of the full length enzyme to avoid autocatalysis.
Cal1cat and CathB were pre-treated with inhibitors for 10 min, followed by a 20 min incubation with the biotinylated epoxide, 27, as illustrated in FIG. 4. […] A more quantitative estimate of selectivity was achieved by comparison of band intensities.
The appropriate inhibitor (5 μM) was pre-incubated in a mixture containing Cal1cat (2 μM), CathB (2 μM), TCEP (1 mM), and Ca^2+ (30 μM) for 10 min at 37° C. […] (5 μM) was then added and the mixture incubated an additional 20 min. The reaction was quenched with EDTA (10 μM) and samples were ran using 4-16% SDS PAGE gel, subsequently transferred to PVDF membrane and visualized by Pierce ECL (Enhanced chemiluminescent) western blotting substrate, intensity of each blot was calculated using densitometry software. Relative inhibition of each enzyme was calculated with respect to enzyme activity in the absence of inhibitor. Inhibitor preference to Cal1cat with respect to CathB, was calculated by dividing relative Cal1cat inhibition with relative CathB inhibition of that particular inhibitor.

[8] = Table 2, approximate IC50, read-out: Cal I IC50
[9] = 3 month old APP/PS1 mice, 2-day RAWM, daily from 2 months
[10] = 3 month old APP/PS1 mice, daily i.p. from 2 months
[11] = APP/PS1 mice, daily treatment from 2 until 7 months
[12] = ki/Ki calculated relative to E-64
[13] = mean ± S.D. of triplicate experiments

T1 sequence (P07384 whole entry): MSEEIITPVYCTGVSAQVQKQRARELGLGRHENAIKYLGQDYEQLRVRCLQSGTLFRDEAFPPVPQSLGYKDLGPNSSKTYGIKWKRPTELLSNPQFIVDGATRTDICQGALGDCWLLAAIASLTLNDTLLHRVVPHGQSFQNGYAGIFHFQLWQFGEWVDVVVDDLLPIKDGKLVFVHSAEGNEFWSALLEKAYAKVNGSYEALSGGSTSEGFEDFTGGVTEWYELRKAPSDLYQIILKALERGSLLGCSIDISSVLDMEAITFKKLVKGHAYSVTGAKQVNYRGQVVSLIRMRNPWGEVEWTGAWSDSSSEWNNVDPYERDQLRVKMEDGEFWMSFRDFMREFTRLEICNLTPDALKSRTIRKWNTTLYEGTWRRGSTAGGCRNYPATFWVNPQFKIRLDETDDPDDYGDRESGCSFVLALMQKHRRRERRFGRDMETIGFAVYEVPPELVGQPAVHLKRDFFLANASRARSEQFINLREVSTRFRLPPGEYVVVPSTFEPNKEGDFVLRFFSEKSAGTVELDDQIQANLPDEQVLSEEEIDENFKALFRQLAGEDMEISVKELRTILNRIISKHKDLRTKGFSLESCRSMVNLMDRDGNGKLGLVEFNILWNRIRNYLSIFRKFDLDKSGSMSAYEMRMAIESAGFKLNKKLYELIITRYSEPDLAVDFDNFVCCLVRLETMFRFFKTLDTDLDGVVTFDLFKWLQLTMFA
T1 sequence (P04632 whole entry partner): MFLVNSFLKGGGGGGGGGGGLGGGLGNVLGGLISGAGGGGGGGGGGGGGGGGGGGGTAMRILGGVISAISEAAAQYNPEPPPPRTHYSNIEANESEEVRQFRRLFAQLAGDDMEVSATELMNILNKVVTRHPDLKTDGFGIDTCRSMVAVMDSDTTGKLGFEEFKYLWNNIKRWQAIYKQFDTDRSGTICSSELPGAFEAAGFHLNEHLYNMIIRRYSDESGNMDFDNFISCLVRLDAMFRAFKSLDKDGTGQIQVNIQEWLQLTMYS
Full length porcine calpain, sequence (P35750 whole entry): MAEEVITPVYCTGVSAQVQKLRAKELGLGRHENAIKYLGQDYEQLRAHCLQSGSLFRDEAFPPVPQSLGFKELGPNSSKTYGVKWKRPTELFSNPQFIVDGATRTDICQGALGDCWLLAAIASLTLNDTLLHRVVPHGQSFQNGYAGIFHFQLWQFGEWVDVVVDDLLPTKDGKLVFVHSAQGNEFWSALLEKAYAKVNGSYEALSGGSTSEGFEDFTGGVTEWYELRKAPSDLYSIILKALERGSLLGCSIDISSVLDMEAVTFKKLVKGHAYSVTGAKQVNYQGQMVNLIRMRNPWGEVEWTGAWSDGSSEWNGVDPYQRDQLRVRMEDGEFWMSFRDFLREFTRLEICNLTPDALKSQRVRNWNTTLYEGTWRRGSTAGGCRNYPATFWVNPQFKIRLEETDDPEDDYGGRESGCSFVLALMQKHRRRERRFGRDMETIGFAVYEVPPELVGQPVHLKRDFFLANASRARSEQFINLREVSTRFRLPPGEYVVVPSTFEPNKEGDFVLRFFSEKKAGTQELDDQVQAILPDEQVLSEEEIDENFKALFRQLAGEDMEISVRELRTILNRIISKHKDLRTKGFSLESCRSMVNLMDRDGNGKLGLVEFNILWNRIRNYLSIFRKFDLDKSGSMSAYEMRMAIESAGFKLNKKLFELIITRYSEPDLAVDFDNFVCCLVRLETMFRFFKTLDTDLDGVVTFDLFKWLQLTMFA
Full length porcine calpain, sequence (P04574 whole entry partner): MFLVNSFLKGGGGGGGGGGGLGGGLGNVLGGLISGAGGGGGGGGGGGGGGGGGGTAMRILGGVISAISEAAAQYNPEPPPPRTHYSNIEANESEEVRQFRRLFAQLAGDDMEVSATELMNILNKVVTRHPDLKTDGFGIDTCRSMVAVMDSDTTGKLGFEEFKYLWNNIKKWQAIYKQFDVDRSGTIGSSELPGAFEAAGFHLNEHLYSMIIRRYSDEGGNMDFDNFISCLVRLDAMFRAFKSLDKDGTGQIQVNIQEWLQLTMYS
papain, sequence (P00784 134-345): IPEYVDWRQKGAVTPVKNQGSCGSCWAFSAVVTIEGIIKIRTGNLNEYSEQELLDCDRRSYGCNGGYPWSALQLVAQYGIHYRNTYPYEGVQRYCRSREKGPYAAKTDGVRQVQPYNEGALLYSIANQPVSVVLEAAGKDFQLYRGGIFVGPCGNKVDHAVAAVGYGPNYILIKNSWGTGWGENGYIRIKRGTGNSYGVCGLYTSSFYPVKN

Structure (SMILES) | Relative selectivity for Cal I E64 = 1.0 (Cal I) | LD50 ≧ 50 μM primary neurons (primary neurons) | IC50 (full-length human Cal1 [1]) | IC50 (full-length human Cal1 [2]; [8]) | reference memory (APP/PS1 mice; [9]) | contextual fear memory (APP/PS1 mice; [10]) | contextual fear memory (APP/PS1 mice; [11]) | reference memory (APP/PS1 mice; [11]) | prevention of spectrin cleavage by calpains in hippocampi [3] | time of peak plasma concentration [6] | half-life [6] | bioavailability [6] | MTD [7] | other results
CC(C)C[C@H](NC(=O)[C@H]1O[C@@H]1C(=O)O)C(=O)NCCCCNC(=O)CCCCC1CCSS1 (stereo partly drawn) [Compound 26, (2S,3S)-3-((2S)-1-(4-(5-(1,2-dithiolan-3-yl)pentanamido)butylamino)-4-methyl-1-oxopentan-2-ylcarbamoyl)oxirane-2-carboxylic acid] | 1.6 | YES | 0.1 µM | 0.15 µM | – | – | – | – | – | – | – | – | – | –
O=C(NCc1cn(-c2ccc(F)cc2)nn1)[C@H](Cc1cscn1)NC(=O)[C@H]1O[C@@H]1C(=O)O [Compound 50, (2S,3S)-3-((S)-1-((1-(4-fluorophenyl)-1H-1,2,3-triazol-4-yl)methylamino)-1-oxo-3-(thiazol-4-yl)propan-2-ylcarbamoyl)oxirane-2-carboxylic acid] | – | – | 0.1 µM | 0.125 µM | beneficial | beneficial | ameliorated | ameliorated | dramatically reduced the amount of fragments | 0.125 h | ~36 min | 41.3% | 200 mg/kg | memory impairment (APP/PS1 mice; 7 month old APP/PS1 mice, chronic administration): beneficial; brain penetration ([3]; inferred from hippocampal spectrin cleavage): capable of effectively penetrating the brain; Ki (papain; apparent equilibrium constant, read-out: K1 Papain): 19.2 µM; ki Papain (papain; inhibition rate): 12.7 s⁻¹; rel Papain (papain; [12]): 0.12; 10^−5 × ki/Ki Papain (papain; [13]): 6.62 ± 0.74; Relative Selectivity ([4]; Cal1 over papain, ki/Ki relative to E-64 set at 1.0): 9.3; Ki ([4]; apparent equilibrium constant, full length Cal1, read-out: K1 Calpain1): 2.9 µM; ki Calpain1 ([4]; inhibition rate, full length Cal1): 0.10 s⁻¹; relative selectivity for inhibition of Cal1 over papain (in words) ([4]; ki/Ki as measure, compared with E-64): Cal1 selectivity; rel Calpain1 [4, 12]: 1.1; 10^−4 × ki/Ki Calpain1 [4, 13]: 3.31 ± 0.32; potency for LTP rescue compared with E64 [5]: surpassed E64; Cal1 inhibition (in words) (full-length human Cal1 [2]): potent activity
O=C(Nc1nc(-c2ccc(F)cc2)cs1)C(Cc1cnc[nH]1)NC(=O)[C@H]1O[C@@H]1C(=O)O (stereo partly drawn) [Compound 30a, (2S,3S)-3-(1-(4-(4-fluorophenyl)thiazol-2-ylamino)-3-(1H-imidazol-4-yl)-1-oxopropan-2-ylcarbamoyl)oxirane-2-carboxylic acid] | – | – | – | 0.1 µM | beneficial | beneficial | ameliorated | ameliorated | less efficient at preventing the spectrin cleavage | 0.25 h | ~36 min | 80.4% | 100 mg/kg | blocking of active site modification by probe 27 (western blot signal) (Cal1cat vs CathB; 10 min pre-treatment, then 20 min with 27): little change in the CathB signal; selectivity for Cal1cat (ratio of Cal1cat versus CathB band intensities) (Cal1cat vs CathB; ratio for probe 27 alone set as 1.0, inhibitor 5 μM): highest selectivity; chronic toxicity, histopathology ([7]; chronic treatment at MTD): nephrotoxicity was noticed; IC50 (full-length human Cal1 [2]; Cal1, values stated in text, read-out: IC50): ~0.1 µM
CC(C)C[C@H](NC(=O)[C@H]1O[C@@H]1C(=O)O)C(=O)NCCCCNS(=O)(=O)c1ccc(F)cc1 [Compound 25, (2S,3S)-3-((S)-1-(4-(4-fluorophenylsulfonamido)butylamino)-4-methyl-1-oxopentan-2-ylcarbamoyl)oxirane-2-carboxylic acid] | 0.9 | YES | 0.15 µM | 0.1 µM | – | – | – | – | – | – | – | – | – | –
CC(=O)NCCCCNC(=O)[C@H](CC(C)C)NC(=O)C1OC1c1ccccc1 (some centres unmarked) [Compound 61] | 0.3 | YES | – | ~1 µM | – | – | – | – | – | – | – | – | – | –
